Common to all, as to experiment: Cysteine liganding, probe competition
Common to all, as to assay type: binding

One assay has as its target T1, UniProt O00635 (Homo sapiens, UniProt O00635).
T1 construct: 200 μL of lysate containing 5 mg/ml proteome was treated with 2 μL of 100× compound stock; endogenous in cells
An excerpt:
(§1) The following 96-well sample prep protocol was used for sample preparation.

For the next assay, the target named is T2, UniProt Q7Z6E9 (Homo sapiens, UniProt Q7Z6E9).
T2 construct: 200 μL of lysate containing 5 mg/ml proteome was treated with 2 μL of 100× compound stock; endogenous in cells
The settings on record: read-out: KB02_100 uM_percent_inhibition.
Source text: as §1

The next assay addresses T3, UniProt Q7L0R7 (Homo sapiens, UniProt Q7L0R7).
T3 construct: 200 μL of lysate containing 5 mg/ml proteome was treated with 2 μL of 100× compound stock; endogenous in cells
Source text: as §1

Another assay concerns the target T4, UniProt Q6Q0C0 (Homo sapiens, UniProt Q6Q0C0).
T4 construct: 200 μL of lysate containing 5 mg/ml proteome was treated with 2 μL of 100× compound stock; endogenous in cells
T4 sequence (Q6Q0C0 1-670): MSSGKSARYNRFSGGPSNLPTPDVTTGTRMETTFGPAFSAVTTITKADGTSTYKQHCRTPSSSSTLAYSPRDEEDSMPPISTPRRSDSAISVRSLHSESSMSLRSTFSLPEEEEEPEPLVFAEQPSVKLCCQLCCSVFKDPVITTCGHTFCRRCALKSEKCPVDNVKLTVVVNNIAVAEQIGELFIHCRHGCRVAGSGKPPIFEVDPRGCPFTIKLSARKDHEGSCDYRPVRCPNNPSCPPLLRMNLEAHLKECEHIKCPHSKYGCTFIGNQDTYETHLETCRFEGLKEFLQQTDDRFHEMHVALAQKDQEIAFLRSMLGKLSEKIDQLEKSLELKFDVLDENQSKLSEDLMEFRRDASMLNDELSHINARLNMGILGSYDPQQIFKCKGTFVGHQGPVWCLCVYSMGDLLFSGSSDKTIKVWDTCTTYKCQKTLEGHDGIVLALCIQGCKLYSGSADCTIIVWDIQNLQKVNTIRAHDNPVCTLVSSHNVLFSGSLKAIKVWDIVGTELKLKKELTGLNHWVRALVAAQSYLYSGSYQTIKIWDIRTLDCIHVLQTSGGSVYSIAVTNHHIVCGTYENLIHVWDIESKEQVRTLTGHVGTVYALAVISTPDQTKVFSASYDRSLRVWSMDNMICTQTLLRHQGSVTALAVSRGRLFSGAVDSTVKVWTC
Source text: as §1

The next assay has as its target T5, UniProt Q9C030 (Homo sapiens, UniProt Q9C030).
T5 construct: 200 μL of lysate containing 5 mg/ml proteome was treated with 2 μL of 100× compound stock; endogenous in cells
As to conditions: read-out: KB05_500 uM_percent_inhibition.
Source text: as §1

The target of a further assay is T6, UniProt Q86YT6 (Homo sapiens, UniProt Q86YT6).
T6 construct: Cells were resuspended in cold PBS on ice and sonicated with a probe sonicator to achieve lysis; endogenous in cells
The settings on record: read-out: percent inhibition.
Source text: as §1

Another assay has as its target T7, UniProt Q13356 (Homo sapiens, UniProt Q13356).
T7 construct: 200 μL of lysate containing 5 mg/ml proteome was treated with 2 μL of 100× compound stock; endogenous in cells
The settings on record: read-out: KB05_500 uM_percent_inhibition.
Source text: as §1

Another assay addresses T8, UniProt O60291 (Homo sapiens, UniProt O60291).
T8 construct: Cells were resuspended in cold PBS on ice and sonicated with a probe sonicator to achieve lysis; endogenous in cells
Source text: as §1

The target in a further assay is T9, UniProt Q96AX9 (Homo sapiens, UniProt Q96AX9).
T9 construct: Cells were resuspended in cold PBS on ice and sonicated with a probe sonicator to achieve lysis; endogenous in cells
Source text: as §1

A further assay deals with T10, UniProt A8MQ27 (Homo sapiens, UniProt A8MQ27).
T10 construct: Cells were resuspended in cold PBS on ice and sonicated with a probe sonicator to achieve lysis; endogenous in cells
The settings on record: read-out: percent inhibition.
Source text: as §1

For another assay, the target named is T11, UniProt Q8N653 (Homo sapiens, UniProt Q8N653).
T11 construct: Cells were resuspended in cold PBS on ice and sonicated with a probe sonicator to achieve lysis; endogenous in cells
As to conditions: read-out: percent inhibition.
Source text: as §1

The target of the next assay is T12, UniProt Q8IUQ4 (Homo sapiens, UniProt Q8IUQ4).
T12 construct: 200 μL of lysate containing 5 mg/ml proteome was treated with 2 μL of 100× compound stock; endogenous in cells
Source text: as §1

A further assay deals with T13, UniProt Q9BUZ4 (Homo sapiens, UniProt Q9BUZ4).
T13 construct: 200 μL of lysate containing 5 mg/ml proteome was treated with 2 μL of 100× compound stock; endogenous in cells
As to conditions: 100 uM.
Source text: as §1

The structures appear in SMILES notation. Where two headings read alike, the source gives them in different places.

T3 sequence (Q7L0R7 whole entry, change not shown): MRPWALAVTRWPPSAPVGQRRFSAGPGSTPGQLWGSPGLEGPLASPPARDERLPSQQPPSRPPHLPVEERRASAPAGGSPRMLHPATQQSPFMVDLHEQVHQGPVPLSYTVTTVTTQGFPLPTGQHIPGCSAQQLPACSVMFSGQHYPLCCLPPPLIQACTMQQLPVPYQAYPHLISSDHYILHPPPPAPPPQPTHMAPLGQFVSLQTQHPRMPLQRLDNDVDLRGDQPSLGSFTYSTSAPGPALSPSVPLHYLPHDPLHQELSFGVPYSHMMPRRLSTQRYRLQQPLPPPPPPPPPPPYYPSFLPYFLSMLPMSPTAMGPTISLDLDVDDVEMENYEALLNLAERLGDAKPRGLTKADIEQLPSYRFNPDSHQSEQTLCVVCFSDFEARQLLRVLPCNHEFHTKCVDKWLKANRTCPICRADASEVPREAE
T9 sequence (Q96AX9 whole entry, change not shown): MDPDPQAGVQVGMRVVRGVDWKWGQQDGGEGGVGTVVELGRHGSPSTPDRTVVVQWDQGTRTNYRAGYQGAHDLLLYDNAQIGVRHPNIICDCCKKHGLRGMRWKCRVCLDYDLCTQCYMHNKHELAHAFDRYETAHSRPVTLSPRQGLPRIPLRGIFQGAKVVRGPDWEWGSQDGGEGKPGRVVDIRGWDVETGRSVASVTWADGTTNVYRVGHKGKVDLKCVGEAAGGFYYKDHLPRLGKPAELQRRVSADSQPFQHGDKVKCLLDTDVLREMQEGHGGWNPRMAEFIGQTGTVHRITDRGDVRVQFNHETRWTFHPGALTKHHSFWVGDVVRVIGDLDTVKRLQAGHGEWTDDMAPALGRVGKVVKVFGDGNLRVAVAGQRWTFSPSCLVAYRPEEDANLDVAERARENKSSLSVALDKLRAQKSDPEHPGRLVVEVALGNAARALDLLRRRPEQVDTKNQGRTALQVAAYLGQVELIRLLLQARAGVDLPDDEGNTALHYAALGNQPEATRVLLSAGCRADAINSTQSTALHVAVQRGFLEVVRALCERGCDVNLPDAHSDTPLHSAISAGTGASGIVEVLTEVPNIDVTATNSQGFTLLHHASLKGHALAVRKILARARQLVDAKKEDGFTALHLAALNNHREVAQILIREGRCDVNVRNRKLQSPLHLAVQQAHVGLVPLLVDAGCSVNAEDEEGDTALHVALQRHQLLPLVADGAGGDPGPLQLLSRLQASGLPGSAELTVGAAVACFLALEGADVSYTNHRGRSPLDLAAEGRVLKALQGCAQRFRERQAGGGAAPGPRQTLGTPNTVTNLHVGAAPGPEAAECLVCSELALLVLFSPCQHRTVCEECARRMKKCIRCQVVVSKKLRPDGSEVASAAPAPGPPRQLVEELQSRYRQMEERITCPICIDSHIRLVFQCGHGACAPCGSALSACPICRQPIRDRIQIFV
T8 sequence (O60291 whole entry, change not shown): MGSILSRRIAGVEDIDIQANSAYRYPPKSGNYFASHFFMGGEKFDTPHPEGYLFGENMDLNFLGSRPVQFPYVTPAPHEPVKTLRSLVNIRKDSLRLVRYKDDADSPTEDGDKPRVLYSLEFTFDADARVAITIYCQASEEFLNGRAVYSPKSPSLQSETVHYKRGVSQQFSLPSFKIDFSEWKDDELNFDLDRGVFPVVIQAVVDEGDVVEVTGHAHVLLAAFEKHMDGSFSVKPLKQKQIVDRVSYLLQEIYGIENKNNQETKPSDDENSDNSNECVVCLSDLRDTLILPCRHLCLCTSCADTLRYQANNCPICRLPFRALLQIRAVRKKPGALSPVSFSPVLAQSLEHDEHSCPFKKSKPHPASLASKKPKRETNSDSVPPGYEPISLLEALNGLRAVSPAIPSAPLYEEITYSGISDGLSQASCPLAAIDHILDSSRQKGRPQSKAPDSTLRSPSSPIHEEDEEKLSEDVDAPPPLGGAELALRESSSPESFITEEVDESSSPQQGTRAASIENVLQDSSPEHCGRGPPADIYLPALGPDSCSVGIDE
T12 sequence (Q8IUQ4 whole entry, change not shown): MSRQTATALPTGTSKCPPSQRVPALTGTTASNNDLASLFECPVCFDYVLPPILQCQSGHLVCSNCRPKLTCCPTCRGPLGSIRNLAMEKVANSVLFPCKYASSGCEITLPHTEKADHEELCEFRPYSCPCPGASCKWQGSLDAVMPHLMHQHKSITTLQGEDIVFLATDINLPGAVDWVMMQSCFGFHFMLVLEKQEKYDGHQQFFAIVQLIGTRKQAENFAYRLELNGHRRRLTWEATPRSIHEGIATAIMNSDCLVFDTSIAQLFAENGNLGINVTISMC
T1 sequence (O00635 whole entry, change not shown): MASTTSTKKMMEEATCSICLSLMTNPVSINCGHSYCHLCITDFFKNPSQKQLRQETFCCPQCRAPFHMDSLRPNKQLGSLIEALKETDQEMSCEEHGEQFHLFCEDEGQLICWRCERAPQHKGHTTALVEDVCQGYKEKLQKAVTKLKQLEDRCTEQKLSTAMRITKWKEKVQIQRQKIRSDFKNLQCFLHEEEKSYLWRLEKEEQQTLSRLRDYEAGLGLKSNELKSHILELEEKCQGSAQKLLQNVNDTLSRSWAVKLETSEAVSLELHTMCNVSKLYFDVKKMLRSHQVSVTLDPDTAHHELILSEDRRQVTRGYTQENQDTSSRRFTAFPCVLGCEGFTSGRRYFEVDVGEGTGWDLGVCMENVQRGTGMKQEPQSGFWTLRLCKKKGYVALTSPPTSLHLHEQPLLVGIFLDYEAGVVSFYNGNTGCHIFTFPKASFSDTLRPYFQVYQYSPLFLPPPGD
T10 sequence (A8MQ27 whole entry, change not shown): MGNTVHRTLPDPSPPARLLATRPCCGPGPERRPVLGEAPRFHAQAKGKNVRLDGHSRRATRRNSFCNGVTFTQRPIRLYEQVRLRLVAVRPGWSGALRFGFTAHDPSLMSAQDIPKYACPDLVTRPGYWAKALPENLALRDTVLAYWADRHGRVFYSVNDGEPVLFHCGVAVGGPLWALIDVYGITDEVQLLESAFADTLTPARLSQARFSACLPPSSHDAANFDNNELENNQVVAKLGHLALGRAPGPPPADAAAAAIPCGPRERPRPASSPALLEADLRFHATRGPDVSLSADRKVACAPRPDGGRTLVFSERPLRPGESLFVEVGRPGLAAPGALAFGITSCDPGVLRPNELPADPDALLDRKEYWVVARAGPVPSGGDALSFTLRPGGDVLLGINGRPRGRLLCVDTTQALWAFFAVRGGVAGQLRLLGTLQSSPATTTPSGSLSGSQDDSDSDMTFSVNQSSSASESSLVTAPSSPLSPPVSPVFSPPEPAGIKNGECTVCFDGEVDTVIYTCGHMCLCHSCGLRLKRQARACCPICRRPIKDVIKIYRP
T6 sequence (Q86YT6 whole entry, change not shown): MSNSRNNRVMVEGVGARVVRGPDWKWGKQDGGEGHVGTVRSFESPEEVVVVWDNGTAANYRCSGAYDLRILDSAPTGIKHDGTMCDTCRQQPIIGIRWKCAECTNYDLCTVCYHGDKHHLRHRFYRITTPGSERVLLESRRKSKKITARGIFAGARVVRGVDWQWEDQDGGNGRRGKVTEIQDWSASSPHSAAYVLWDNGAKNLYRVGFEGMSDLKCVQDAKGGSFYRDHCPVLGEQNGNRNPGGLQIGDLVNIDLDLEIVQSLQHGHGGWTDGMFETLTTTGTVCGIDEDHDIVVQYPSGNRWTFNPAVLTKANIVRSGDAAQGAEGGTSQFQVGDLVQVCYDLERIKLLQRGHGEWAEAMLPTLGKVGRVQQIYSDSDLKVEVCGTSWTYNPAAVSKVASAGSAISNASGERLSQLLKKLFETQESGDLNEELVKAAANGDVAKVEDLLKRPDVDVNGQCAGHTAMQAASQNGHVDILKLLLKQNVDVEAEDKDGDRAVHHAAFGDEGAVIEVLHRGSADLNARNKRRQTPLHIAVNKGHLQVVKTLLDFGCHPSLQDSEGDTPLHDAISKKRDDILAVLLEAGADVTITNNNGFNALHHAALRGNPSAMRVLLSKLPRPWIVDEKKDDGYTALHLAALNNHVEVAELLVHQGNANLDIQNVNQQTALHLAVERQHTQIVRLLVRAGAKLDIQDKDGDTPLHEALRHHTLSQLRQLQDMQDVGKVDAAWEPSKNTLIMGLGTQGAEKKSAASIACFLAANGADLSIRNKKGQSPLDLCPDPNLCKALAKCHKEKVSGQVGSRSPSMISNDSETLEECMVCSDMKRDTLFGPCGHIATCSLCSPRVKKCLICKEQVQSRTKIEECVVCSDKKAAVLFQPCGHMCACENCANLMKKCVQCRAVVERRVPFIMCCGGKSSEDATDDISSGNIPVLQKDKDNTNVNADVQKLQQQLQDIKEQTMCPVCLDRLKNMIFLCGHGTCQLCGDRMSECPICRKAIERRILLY
T7 sequence (Q13356 whole entry, change not shown): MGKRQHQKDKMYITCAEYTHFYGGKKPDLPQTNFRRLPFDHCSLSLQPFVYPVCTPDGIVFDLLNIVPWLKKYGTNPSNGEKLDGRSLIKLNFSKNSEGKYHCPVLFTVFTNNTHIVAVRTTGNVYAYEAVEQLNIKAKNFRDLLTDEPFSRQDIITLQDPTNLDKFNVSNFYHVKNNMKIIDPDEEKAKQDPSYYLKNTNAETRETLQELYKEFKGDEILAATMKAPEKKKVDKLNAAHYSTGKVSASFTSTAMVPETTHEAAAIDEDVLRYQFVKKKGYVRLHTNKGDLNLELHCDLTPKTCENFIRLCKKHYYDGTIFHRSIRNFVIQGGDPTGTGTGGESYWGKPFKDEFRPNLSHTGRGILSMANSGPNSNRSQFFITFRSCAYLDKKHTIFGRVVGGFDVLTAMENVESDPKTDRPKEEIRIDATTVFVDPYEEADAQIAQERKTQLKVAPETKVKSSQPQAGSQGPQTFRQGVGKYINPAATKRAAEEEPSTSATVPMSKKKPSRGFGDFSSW

Turning to `COc1ccc2c(c1)CCCN2C(=O)CCl` [KB02], the “KB02_100 uM_percent_inhibition” value on UniProt O00635 (100 uM) was 7%. Also, the inhibition at 100 µM at UniProt O00635 (read-out: KB02_100 uM_percent_inhibition) stood at 8%; on UniProt Q7Z6E9, 23%; on UniProt Q7L0R7 (100 uM, read-out: percent_inhibition) it was 44%; at UniProt Q6Q0C0 (100 uM, read-out: KB02_100 uM_percent_inhibition), 3%; at UniProt Q6Q0C0 (read-out: percent_inhibition), 1%. This compound registered a percent_inhibition on UniProt Q7L0R7 (500 uM) of 42%. Also, the inhibition at 500 µM at UniProt Q7L0R7 (500 uM, read-out: percent_inhibition) worked out at 41%; at UniProt Q6Q0C0 (500 uM, read-out: KB02_500 uM_percent_inhibition), 47%.
For the compound `C=CC(=O)N(c1ccccc1)c1ccc(Br)cc1` [KB05], the figures for the inhibition at 500 µM on UniProt Q9C030, on UniProt Q13356 and on UniProt A8MQ27 were 53%, 69% and 44%, respectively. Also, the inhibition at 100 µM at UniProt Q86YT6 was found to be 31%; at UniProt O60291 (read-out: percent inhibition), 13%; on UniProt Q96AX9 (read-out: percent inhibition), 11%; at UniProt Q8N653, 11%; on UniProt Q8IUQ4 (read-out: percent_inhibition), 9%. In addition, the values for the percent inhibition on UniProt O60291 (100 uM) and on UniProt Q96AX9 (100 uM) were 20% and 9%, respectively. Moreover, the percent_inhibition at UniProt Q8IUQ4 (100 uM) turned out to be 17%.
Turning to `O=C(CCl)Nc1cc(C(F)(F)F)cc(C(F)(F)F)c1` [KBO3], the percent_inhibition on UniProt Q9BUZ4 is 30%.

The record behind these values is patent US20200239530A1, “COMPOUNDS AND METHODS OF MODULATING PROTEIN DEGRADATION” (Vividion Therapeutics, Inc., priority 2017, published 2020).
